Results: US20240239806A1, “COMPOUNDS, COMPOSITIONS AND METHODS OF TREATING DISORDERS” (Chengdu Anticancer Bioscience, Ltd., priority 2021, published 2024)

Experiments:
[1] = system: colon cancer cell line HCT116; test: Soft agar colony formation assay; assay type: cell-based, human
[2] = system: Human Cancer Cells; test: Anchorage-independent growth in 3D culture (FIG. 3); assay type: cell-based; conditions: FIG. 3 legend, cell line not named
Source text: (§1) Measuring the ability of cells to grow in soft agar has been popularly believed as the gold standard assay for cellular transformation in vitro. In the Soft Agar Assay, cells grow from single cells to cell colonies in a semi-solid agar solution that keeps them away from the solid surface and allows growth in an anchorage-independent way.
The anchorage-independent growth of cells is one of the hallmarks of cancer cells. Normal epithelial cells are supported by basement membranes that provide survival and proliferative signals while undergo a type of apoptosis called anoikis when lose their attachment to the extracellular matrix. Cancer cells, in contrast, evade detachment-induced apoptosis, leading to uncontrolled proliferation and metastasis. The Soft Agar Colony Formation Assay allows testing of the therapeutic efficacy of compounds against anchorage-independent 3D growth of cancer cells in vin. The assay was performed in 6-well plates with two layers of agar. For the first, 0.75% agar in DMEM medium was melted in a microwave oven and poured to form a bottom layer. Once solidified, 10-100K cells in 1 ml of DMEM containing 0.35% agar was added to form the top layer, which was later covered with 0.5 ml of DMEM. Cell culture medium was changed once every two days until colonies were ready to photograph. We test the antitumor activity of select compounds in soft agar colony formation assays. […] The suppression of growth of these three cancer cell lines in 3D culture is consistent with the potent impact of these compounds on cellular proliferation in 2D culture.

[3] = system: DU145; test: MTT assay of cellular proliferation; assay type: cell-based; conditions: Homo sapiens, DU-145, 50% inhibition of cellular proliferation
In short: (§2)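 EC50 for 50% growth inhibition came from MTT formazan absorbance at 570 nm after 3–4 h dye incubation. Beforehand, cells grown to 20–30% confluence (15–24 h) in DMEM/5% FBS were treated with compound over 1 nM–30 μM.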

[4] = system: A549; test: MTT assay of cellular proliferation; assay type: cell-based; conditions: Homo sapiens, 50% inhibition of cellular proliferation
In short: as §2

[5] = system: NCI-H2170; test: MTT assay of cellular proliferation; assay type: cell-based; conditions: Homo sapiens, 50% inhibition of cellular proliferation
In short: as §2

[6] = system: NCI-N87; test: MTT assay of cellular proliferation; assay type: cell-based; conditions: Homo sapiens, 50% inhibition of cellular proliferation
In short: as §2

[7] = system: Calu-6; test: MTT assay of cellular proliferation; assay type: cell-based; conditions: Homo sapiens; Calu-6, MTT, 50% inhibition of cellular proliferation
In short: as §2

[8] = system: SW480; test: MTT assay of cellular proliferation; assay type: cell-based; conditions: Homo sapiens, 50% inhibition of cellular proliferation
In short: as §2

[9] = system: A549; test: MECP in cancer cell line; assay type: cell-based; conditions: Homo sapiens
In short: (§3)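 DMEM, 5% FBS, 37 °C, 5% CO2; dose range 1 nM–30 μM; endpoints MI (24 h), polyploidy (48 h), 72 h DNA content by imaging; categorical A–D output.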

[10] = system: SW480; test: MECP in cancer cell line; assay type: cell-based; conditions: Homo sapiens
In short: as §3

[11] = system: DU145; test: MECP in cancer cell line; assay type: cell-based, human
Protocol: (§4) Six lung cancer cell lines (NCI-H23, NCI-H460, NCI-H596, NCI-H2170, Calu-6 and A549), two colon cancer cell lines (HCT116 and SW460), one breast cancer cell line MDA-MB-231, one gastric cancer cell line NCI-N87, one prostate cancer cell line DU145, one cervical cancer cell line Hela, and one glioblastoma cell line T98G were obtained from ATCC. The T2 HCC cell line was derived from a mouse liver cancer model initiated by a transgene of MYC. All cell lines were cultured in DMEM (Gibco, Cleveland, TN, USA) supplemented with 5% fetal bovine serum (Gibco), penicillin (100 U/mL)—streptomycin (100 μg/mL) (Gibco, Cat. No. 15140-122), 2 mM L-glutamine (Gibco, 200 mM solution, Cat. No. 25030081), and 1 mM sodium pyruvate (Gibco, 100 mM solution, Cat. No. 11360070) at 37° C. in a humidified incubator that was maintained at 5% CO2.
(§5) We have previously developed a mechanism-informed phenotypic screening assay to identify novel antimitotic agents. Equipped with a prior understanding of the versatile functions of the chromosomal passenger protein (CPP) complex in orchestrating karyokinesis and cytokinesis, the screening assay is to score for phenotypes typically seen when the CPP complex is disabled. Specifically, the parameters for a positive hit are a temporary elevation of mitotic index (MI) at 24 hours of drug treatment and an accumulation of polyploid cells at 48 hours of drug treatment, indicative of mitotic arrest and cytokinetic failure respectively. These parameters exclude compounds that elicit only a prolonged arrest of cells in mitosis, a phenotype typically provoked by spindle toxins. The screening procedure is briefly summarized here. RPEMYC^H2B-GFP cells engineered to express a Histone 2B-EGFP fusion protein were passaged as batches of 96-well plates, 18-24 hours before exposure to the chemical compounds of the present disclosure at concentrations from 1 nM to 30 μM. At 24, 48 or 72 hours after initiation of treatment, cells were analyzed for either an arrest in mitosis or a change in DNA content by GE IN-Cell Analyzer 2000. As set forth in Table 2 below, a value of greater than or equal to 1 nM and less than or equal to 1.0 μM is marked “A”; a value greater than 1.00 μM and less than or equal to 10.0 μM is marked “B”; a value greater than 10.0 μM and less than or equal to 30.0 μM is marked “C”; and a value greater than 30.0 μM is marked “D.”

[12] = system: NCI-H2170; test: MECP in cancer cell line; assay type: cell-based, human
Protocol: as §4, §5

[13] = system: Calu-6; test: MECP in cancer cell line; assay type: cell-based, human
Protocol: as §4, §5

[14] = system: human lung cancer cell line NCI-H23; test: Soft agar colony formation assay; assay type: cell-based
Source text: as §1
The anchorage-independent growth of cells is one of the hallmarks of cancer cells. Normal epithelial cells are supported by basement membranes that provide survival and proliferative signals while undergo a type of apoptosis called anoikis when lose their attachment to the extracellular matrix. Cancer cells, in contrast, evade detachment-induced apoptosis, leading to uncontrolled proliferation and metastasis. The Soft Agar Colony Formation Assay allows testing of the therapeutic efficacy of compounds against anchorage-independent 3D growth of cancer cells in vin. The assay was performed in 6-well plates with two layers of agar. For the first, 0.75% agar in DMEM medium was melted in a microwave oven and poured to form a bottom layer. Once solidified, 10-100K cells in 1 ml of DMEM containing 0.35% agar was added to form the top layer, which was later covered with 0.5 ml of DMEM. Cell culture medium was changed once every two days until colonies were ready to photograph. […]

Row | Structure (SMILES) | EC50 [3] | EC50 [4] | EC50 [5] | EC50 [7] | EC50 [8] | growth in soft agar [1] | Anchorage-independent Growth of Human Cancer Cells in 3D Culture [2] | EC50 [6] | minimal effective concentration [9] | minimal effective concentration [10] | MECP [11] | MECP [12] | MECP [13] | growth in soft agar [14]
1 | COc1cc(OC)cc(Oc2ccnc3ccccc23)c1 [Compound 7, 4-(3,5-dimethoxyphenoxy)quinoline] | – | – | – | – | – | suppressed the growth | Suppress the Anchorage-independent Growth | – | – | – | – | – | – | –
2 | COC(=O)c1cc(OC)cc(Oc2ncnc3cc(OC)c(OC)cc23)c1 [Compound 29] | 1 to 1000 nM | > 30 µM | 1 to 1000 nM | 1 to 1000 nM | 1000 to 10000 nM | – | – | 1 to 1000 nM | 1 to 10 µM | 1 to 10 µM | B (a value greater than 1.00 M and less than or equal to 10.0 μM) | A (a value of greater than or equal to 1 nM and less than or equal to 1.0 μM) | A (a value of greater than or equal to 1 nM and less than or equal to 1.0 μM) | –
3 | COC(=O)c1cc(Oc2ncnc3ccsc23)cc(C(=O)OC)c1 [Compound 39, dimethyl 5-(thieno[3,2-d]pyrimidin-4-yloxy)isophthalate] | 1 to 1000 nM | > 30 µM | 1000 to 10000 nM | 1 to 1000 nM | – | – | Suppress the Anchorage-independent Growth | 1 to 1000 nM | 1 to 10 µM | – | A (a value of greater than or equal to 1 nM and less than or equal to 1.0 μM) | A (a value of greater than or equal to 1 nM and less than or equal to 1.0 μM) | A (a value of greater than or equal to 1 nM and less than or equal to 1.0 μM) | completely blocked the growth

The next lines start with results.

Row | EC50 [3] | EC50 [4] | EC50 [5] | EC50 [7] | EC50 [8] | Structure (SMILES) | growth in soft agar [1] | Anchorage-independent Growth of Human Cancer Cells in 3D Culture [2] | EC50 [6] | minimal effective concentration [9] | minimal effective concentration [10] | MECP [11] | MECP [12] | MECP [13] | growth in soft agar [14]
4 | 1 to 1000 nM | > 30 µM | 1 to 1000 nM | 1 to 1000 nM | 1000 to 10000 nM | COC(=O)c1cc(OC)cc(Oc2ncnc3cc[nH]c23)c1 [Compound 34, methyl 3-((5H-pyrrolo[3,2-d]pyrimidin-4-yl)oxy)-5-methoxybenzoate] | – | – | 1 to 1000 nM | 1 to 10 µM | 0.001 to 1 µM | A (a value of greater than or equal to 1 nM and less than or equal to 1.0 μM) | A (a value of greater than or equal to 1 nM and less than or equal to 1.0 μM) | A (a value of greater than or equal to 1 nM and less than or equal to 1.0 μM) | –
5 | 1 to 1000 nM | > 30 µM | 1 to 1000 nM | 1 to 1000 nM | – | COC(=O)c1cc(Oc2ncnc3cc[nH]c23)cc(C(=O)OC)c1 [Compound 36, dimethyl 5-((5H-pyrrolo[3,2-d]pyrimidin-4-yl)oxy)isophthalate] | – | Suppress the Anchorage-independent Growth | 1 to 1000 nM | 1 to 10 µM | – | A (a value of greater than or equal to 1 nM and less than or equal to 1.0 μM) | A (a value of greater than or equal to 1 nM and less than or equal to 1.0 μM) | A (a value of greater than or equal to 1 nM and less than or equal to 1.0 μM) | completely blocked the growth
6 | 1 to 1000 nM | > 30 µM | 1 to 1000 nM | 1 to 1000 nM | 1 to 1000 nM | COC(=O)c1cc(OC)cc(Oc2ncnc3ccsc23)c1 [Compound 37, methyl 3-methoxy-5-(thieno[3,2-d]pyrimidin-4-yloxy)benzoate] | – | – | 1 to 1000 nM | 1 to 10 µM | 0.001 to 1 µM | A (a value of greater than or equal to 1 nM and less than or equal to 1.0 μM) | A (a value of greater than or equal to 1 nM and less than or equal to 1.0 μM) | A (a value of greater than or equal to 1 nM and less than or equal to 1.0 μM) | –
